Key:
Type in all cases: physicochemical
[1] = Vapor-liquid equilibrium still, trichloroethylene-n-butanol azeotrope with extractive distillation agent
[2] = Glass perforated plate rectification column (7.3 theoretical plates), trichloroethylene / n-butanol; settings: 2 hrs
Source text: Dimethylsulfoxide gave a relative volatility of 1.28 after two hours of operation.
A solution comprising 300 grams of trichloroethylene and 15 grams of n-butanol was placed in the stillpot of a 7.3 theoretical plate glass perforated plate rectification column. […] After two hours operation, overhead and bottoms samples were collected and analysed. The overhead analysis was 98.2% trichloroethylene, 1.8% n-butanol and the bottoms analysis was 90.1% trichloroethylene, 9.9% n-butanol. This gives an average relative volatility of 1.28 for each theoretical plate.

[3] = as above; settings: 1 hr
[4] = Example 1, refluxed seven hours

Which results are given for `C[S+](C)[O-]` [Dimethylsulfoxide]?
liquid composition, n-butanol [1, 4]: 2.9%; liquid composition, trichloroethylene [1, 4]: 97.1%; vapor composition, n-butanol [1, 4]: 2.3%; vapor composition, trichloroethylene [1, 4]: 97.7%; Relative Volatility ([1]; Example 1: 60 g azeotrope, 30 g agent, refluxed seven hours): 1.25; Relative Volatility ([1]; trichloroethylene from n-butanol, Table 2): 1.3; Relative Volatility (average, per theoretical plate) [2]: 1.28; Weight % C2 H Cl3 ([2]; bottoms): 90.1%; Weight % n-Butanol ([2]; bottoms): 9.9%; Weight % C2 H Cl3 ([2]; overhead): 98.2%; Weight % n-Butanol ([2]; overhead): 1.8%; Relative Volatility (per theoretical plate) [3]: 1.22; Weight % C2 H Cl3 ([3]; bottoms): 88.2%; Weight % n-Butanol ([3]; bottoms): 11.8%; Weight % C2 H Cl3 ([3]; overhead): 96.9%; Weight % n-Butanol ([3]; overhead): 3.1%

Source: patent publication US5118392A, “Separation of trichloroethylene from a butyl alcohol by extractive distillation” (priority 1991, dated 1992)
